Measured values as given in the supplement of paper PMC6470124.

What was measured:
[1] = absolute recovery over vacuum-assisted evaporative concentration; higher = better recovery; details: enrichment method: VEC
In short: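 Samples of influent (6 mL), effluent (15 mL) and surface or nanopure water (60 mL) were spiked with standards before or after concentration, or left unspiked, at 200 ng/L (nanopure/surface) or 1000 ng/L (wastewater), adjusted by class and compound. Concentration was by evaporation at 55 °C and 20 mbar to about 0.3 mL, followed by adjustment to 0.4 mL and centrifugation. Internal standards were then added for LC-HRMS/MS analysis. Absolute recovery was (response ratio pre − unspiked)/(post − unspiked) × 100, using averages of ≥ 2 replicates.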

[2] = LC retention time (Atlantis T3, 5-95% MeOH gradient, 0.1% formic acid); higher = more retained / less polar
In short: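 Retention times were recorded for reference standards (purity ≥ 95%) on a polar reversed-phase C18 column (Atlantis T3, 3 × 150 mm, 3 μm) at 0.3 mL/min. Elution used water and methanol, each with 0.1% formic acid, in a gradient from 5 to 95% methanol over 17.5 min. Detection was by high-resolution tandem mass spectrometry on a QExactive Plus, with positive and negative electrospray in separate runs. Peaks were found and integrated in TraceFinder (5 ppm tolerance, at least three points per peak) and then checked by hand.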

[3] = absolute recovery over mixed-bed multilayer solid-phase extraction; higher = better recovery; details: enrichment method: SPE
In short: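 Wastewater (100–250 mL, adjusted to pH 6.5 and glass-fibre filtered) or 1000 mL unfiltered nanopure water was loaded on a three-layer mixed-bed cartridge and eluted with basic then acidic ethyl acetate/methanol. Standards were spiked before extraction, after it, or not at all, at 200 ng/L (water) or 1000 ng/L (wastewater), with class exceptions. Internal standards were added afterwards, then LC-HRMS/MS ran in both ionisation modes. Absolute recovery compares background-corrected response ratios of pre- versus post-spiked samples, averaged over at least two replicates.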

| SMILES | absolute recovery ([1]; wastewater effluent) | absolute recovery ([1]; wastewater influent) | LC retention time [2] | absolute recovery ([3]; nanopure water) | absolute recovery ([3]; surface water) | absolute recovery ([3]; wastewater effluent) | absolute recovery ([3]; wastewater influent) |
| --- | --- | --- | --- | --- | --- | --- | --- |
| CCCc1nc2c(C)cc(-c3nc4ccccc4n3C)cc2n1Cc1ccc(-c2ccccc2C(=O)[O-])cc1 [Telmisartan] | 86.1% | 82.1% | 17.1 min | 108% | 82.5% | 88.5% | 126% |
| CS(=O)(=O)c1ccc(C(=O)[C-]2C(=O)CCCC2=O)c(Cl)c1COCC(F)(F)F [Tembotrione] | 104% | 116% | 18.9 min | 91.7% | 89.4% | 90.9% | 91.3% |
| CC(Cn1cnc2c(N)ncnc21)OCP(=O)([O-])O (configuration not stated) [Tenofovir] | 105% | 114% | 7.16 min | 70% |  | 1.9% |  |
| CCC(=[NH+]OCC=CCl)C1=C([O-])CC(C2CCOCC2)CC1=O (configuration not stated) [Tepraloxydim] | 114% | 102% | 19 min | 98.7% | 90.1% | 92.9% |  |
| Cc1[nH]c(=O)n(C(C)(C)C)c(=O)c1Cl [Terbacil] | 102% | 105% | 17.6 min | 96.1% | 96% | 97.3% | 97.2% |
| CC(C)(C)Nc1nc(N)nc(O)n1 [Terbutylazin-desethyl-2-hydroxy] | 113% | 85.2% | 9.56 min | 89.9% | 102% | 96.7% | 94.1% |
| CC(C)(C)Nc1nc(N)nc(Cl)n1 [Terbutylazin-desethyl] | 97.7% | 104% | 17.5 min | 88.2% | 97.5% | 95.8% | 96.2% |
| CCNc1nc(Cl)nc(NC(C)(C)C)n1 [Terbutylazin] | 95% | 91.9% | 19.7 min | 94.9% | 95% | 93.8% | 93.4% |
| COCCOCCOCCOCCOC [Tetraglyme] | 103% | 112% | 13.2 min | 80.5% | 83.7% | 83.5% | 99.6% |
| CN1C(=O)CN=C(C2=CCCCC2)c2cc(Cl)ccc21 [Tetrazepam] | 105% | 100% | 19.9 min | 86.9% | 63.8% | 64.4% | 72.4% |
| c1ccc2[nH]c(-c3cscn3)nc2c1 [Thiabendazol] | 102% | 105% | 11.7 min | 79.2% | 77.5% | 81.8% | 92.3% |
| NC(=O)N=C1SCCN1Cc1ccc(Cl)nc1 [Thiacloprid-amide] | 106% | 104% | 13.2 min | 109% | 108% | 104% | 96.3% |
| N#CN=C1SCCN1Cc1ccc(Cl)nc1 [Thiacloprid] | 102% | 106% | 15.1 min | 97.8% |  | 96.9% | 87.5% |
| CN1COCN(Cc2cnc(Cl)s2)C1=N[N+](=O)[O-] [Thiamethoxam] | 100% | 105% | 12.2 min | 98.4% | 93.9% | 96.3% | 94.2% |
| COC(=O)c1csc(C)c1S(=O)(=O)[N-]C(=O)n1nc(OC)n(C)c1=O [Thiencarbazone] | 110% | 106% | 16.5 min | 104% | 93.9% | 92.6% | 87% |
| COC(=O)c1sccc1S(=O)(=O)[N-]C(=O)Nc1nc(C)nc(OC)n1 [Thifensulfuron-methyl] | 104% | 114% | 16.7 min | 98.9% | 95% | 93.4% | 92.3% |
| CCCC(C)C1(CC)C(=O)N=C([S-])NC1=O (configuration not stated) [Thiopental] | 77.5% | 82.5% | 18.7 min | 49.9% | 83.4% | 66.9% | 73.1% |
| CC[NH+](CC)CCNC(=O)c1cc(S(C)(=O)=O)ccc1OC [Tiaprid] | 108% | 103% | 9.13 min | 90.9% | 94.9% | 90.3% | 94.9% |
| Clc1ccccc1C[NH+]1CCc2sccc2C1 [Ticlopidin] | 51% | 45.4% | 12.7 min | 83.9% | 85.9% | 84.5% | 81.1% |
| CCOC(=O)C1(c2ccccc2)CCC=CC1[NH+](C)C (configuration not stated) [Tilidine] | 70% | 63.5% | 12.6 min | 73.9% | 78.8% | 79.5% | 83.5% |
| CC(C)(C)[NH2+]CC(O)COc1nsnc1N1CCOCC1 (configuration not stated) [Timolol] | 106% | 103% | 12.3 min | 82.7% | 83.1% | 86.3% | 83.9% |
| Cc1cccc(N(C)C(=S)Oc2ccc3ccccc3c2)c1 [Tolnaftat] | 90.5% | 92.4% | 22 min | 63.9% | 98% | 75.8% | 73.4% |
| Cc1cccc(Nc2ccncc2S(=O)(=O)[N-]C(=O)NC(C)C)c1 [Torasemid] | 103% | 105% | 15.6 min |  | 94.3% | 92.3% | 96% |
| COc1cccc(C2(O)CCCCC2C[N+](C)(C)[O-])c1 (configuration not stated) [Tramadol-N-oxide] | 104% | 102% | 12.7 min | 99.4% | 91.3% | 90.2% | 95% |
| COc1cccc(C2(O)CCCCC2C[NH+](C)C)c1 (configuration not stated) [Tramadol] | 82.8% | 144% | 12.2 min | 94.2% | 85.7% | 92% | 91.6% |
| CC(C)(C)C(O)C(Oc1ccc(Cl)cc1)n1cncn1 (configuration not stated) [Triadimenol-A] | 87.1% | 97.4% | 20 min | 98.4% | 83.6% | 85.5% | 94.1% |

| SMILES | absolute recovery ([1]; wastewater effluent) | absolute recovery ([1]; wastewater influent) | LC retention time [2] | absolute recovery ([3]; nanopure water) | absolute recovery ([3]; surface water) | absolute recovery ([3]; wastewater effluent) | absolute recovery ([3]; wastewater influent) |
| --- | --- | --- | --- | --- | --- | --- | --- |
| [O-][n+]1nc(-n2ccnc2)nc2ccc(Cl)cc21 [Triazoxide] | 105% | 89% | 17.5 min | 87.3% | 91.5% | 87.4% | 92.3% |
| COC(=O)c1ccccc1S(=O)(=O)[N-]C(=O)N(C)c1nc(C)nc(OC)n1 [Tribenuron-methyl] | 124% | 119% | 18.1 min |  | 24.9% | 38% |  |
| CSc1nc2cc(Oc3cccc(Cl)c3Cl)c(Cl)cc2[nH]1 [Triclabendazol] | 86.4% | 102% | 21.8 min | 59.4% | 111% | 88.5% | 61.3% |
| O=C(Nc1ccc(Cl)cc1)Nc1ccc(Cl)c(Cl)c1 [Triclocarban] | 113% | 112% | 22 min | 57.9% | 118% | 91.3% | 64.3% |
| Oc1cc(Cl)ccc1Oc1ccc(Cl)cc1Cl [Triclosan] |  | 117% | 21.9 min | 97.2% | 90.7% | 90% | 92.3% |
| CCOP(=O)(OCC)OCC [Triethylphosphat] | 83.5% | 79.6% | 15.9 min | 76.6% | 87.7% | 81.5% |  |
| CON=C(C(=O)OC)c1ccccc1CON=C(C)c1cccc(C(F)(F)F)c1 [Trifloxystrobin] | 77.4% | 97.5% | 21.4 min |  | 97.3% | 88.9% | 99.8% |
| CCCOCC(=Nc1ccc(Cl)cc1C(F)(F)F)n1ccnc1 [Triflumizole] | 93.9% | 114% | 21.3 min | 85.9% | 104% | 97.8% | 61.8% |
| COC(=O)c1cccc(C)c1S(=O)(=O)[N-]C(=O)Nc1nc(OCC(F)(F)F)nc(N(C)C)n1 [Triflusulfuron-methyl] | 106% | 108% | 19.4 min | 103% | 102% | 93.1% | 90.6% |
| CC(CN1c2ccccc2CCc2ccccc21)C[NH+](C)C (configuration not stated) [Trimipramin] | 101% | 104% | 16.2 min | 89.9% | 102% | 95.3% | 54.3% |
| O=C1CC(C(=O)[O-])CC(=O)C1=C([O-])C1CC1 (configuration not stated) [Trinexapac (free acid)] | 108% | 93% | 16.6 min | 76.1% | 36.1% | 78.5% | 77% |
| CCOC(=O)C1CC(=O)C(=C([O-])C2CC2)C(=O)C1 (configuration not stated) [Trinexapac-ethyl] | 102% | 93.4% | 18.8 min | 93.6% | 93.1% | 90.1% | 93.2% |
| COc1nc(NC(=O)[N-]S(=O)(=O)c2ccccc2C(F)(F)F)nc(C(F)(F)F)n1 [Tritosulfuron] | 94.7% | 101% | 19.6 min | 97% | 93.4% | 90.7% | 103% |
| O=C(OC1CC2CCC(C1)[N+]21CCCC1)C(O)(c1ccccc1)c1ccccc1 (configuration not stated) [Trospium] | 99.2% | 103% | 13.7 min | 85.5% | 91.7% | 91.1% | 87.3% |
| CCC1OC(=O)CC(O)C(C)C(OC2OC(C)C(OC3CC(C)(O)C(O)C(C)O3)C([NH+](C)C)C2O)C(CC=O)CC(C)C(=O)C=CC(C)=CC1COC1OC(C)C(O)C(OC)C1OC (configuration not stated) [Tylosin] | 66.4% | 77.5% | 15.8 min | 65.9% | 56.4% | 64.9% | 72.2% |
| CC(CCC(=O)[O-])C1CCC2C3C(O)CC4CC(O)CCC4(C)C3CCC12C (configuration not stated) [Ursodeoxycholic-acid] | 97% |  | 21.1 min | 73.8% |  | 79.2% |  |
| CC(C)C([NH3+])C(=O)OCC(CO)OCn1cnc2c(=O)[nH+]c(N)[nH]c21 (configuration not stated) [Valganciclovir] | 83.6% | 72.2% | 7.61 min | 82.7% | 63.7% | 69.7% | 69.5% |
| O=C([O-])c1ccc(-c2ccccc2-c2nn[nH]n2)cc1 [Valsartan-acid] |  | 104% | 16.4 min | 96.4% | 101% |  | 95.2% |
| CCCCC(=O)N(Cc1ccc(-c2ccccc2-c2nnn[n-]2)cc1)C(C(=O)[O-])C(C)C (configuration not stated) [Valsartan] | 103% |  | 19.6 min | 95.8% | 101% | 91% |  |
| C[NH2+]C(CC(C)C)C(=O)NC1C(=O)NC(CC(N)=O)C(=O)NC2C(=O)NC3C(=O)NC(C(=O)NC(C(=O)[O-])c4cc(O)cc(O)c4-c4cc3ccc4O)C(O)c3ccc(c(Cl)c3)Oc3cc2cc(c3OC2OC(CO)C(O)C(O)C2OC2CC(C)([NH3+])C(O)C(C)O2)Oc2ccc(cc2Cl)C1O (configuration not stated) [Vancomycin] | 108% | 109% | 9.01 min | 108% | 90.4% | 82% | 92.8% |
| COc1ccc(C(C[NH+](C)C)C2(O)CCCCC2)cc1 (configuration not stated) [Venlafaxin] | 106% | 100% | 14 min | 95.3% | 96.8% | 93.3% | 99.1% |
| COc1ccc(C(C[N+](C)(C)[O-])C2(O)CCCCC2)cc1 (configuration not stated) [Venlafaxine-N-Oxide] | 105% | 107% | 14.6 min | 93.2% | 92.8% | 94.6% | 79.7% |
| N#CC1CCCN1C(=O)C[NH2+]C12CC3CC(CC(O)(C3)C1)C2 (configuration not stated) [Vildagliptin] | 105% | 102% | 8.73 min | 92.8% | 94.1% | 92.8% | 93.2% |
| C=CS(=O)(=O)[O-] [Vinylsulfonic-acid] | 103% | 108% | 3.84 min | 1.5% |  |  |  |
| Cc1cc(C(C)(C)C)cc(C)c1CC1=[NH+]CCN1 [Xylometazolin] | 102% | 106% | 15.7 min | 87.3% | 84% | 85.4% | 97.2% |
